The source of these data is patent US6720324B2, “Selective melanin concentrating hormone-1 (MCH1) receptor antagonists and uses thereof” (Synaptic Pharmaceutical Corporation, priority 2000, dated 2004).

The target in experiment [1] is T1, human MCH1 receptor (Homo sapiens, UniProt Q99705). Briefly: Radioligand competition binding with [3H]Compound 10, membranes of A293 cells. Particulars: Table 3, A293 cell membranes, [3H]Compound 10 as radioligand, read-out: hMCH1 * Ki. On the procedure: (§1) For binding assays, pellets of transfected cells are suspended in ice-cold buffer (20 mM Tris.HCl, 5 mM EDTA, pH 7.4) and homogenized by sonication for 7 sec. The cell lysates are centrifuged at 200×g for 5 min at 4° C. The supernatants are then centrifuged at 40,000×g for 20 min at 4° C. The resulting pellets are washed once in the homogenization buffer and suspended in binding buffer (see methods for radioligand binding). Protein concentrations are determined by the method of Bradford (1976) using bovine serum albumin as the standard. Binding assays are usually performed immediately, however it is possible to prepare membranes in batch and store frozen in liquid nitrogen for future use.
Radioligand binding assays for the MCH1 receptor were carried out using plasmid pEXJ.HR-TL231 (ATCC Accession No. 203197). Plasmid pEXJ.HR-TL231 comprises the regulatory elements necessary for expression of DNA in a mammalian cell operatively linked to DNA encoding the human MCH1 receptor so as to permit expression thereof. Plasmid pEXJ.HR-TL231 was deposited on Sep. 17, 1998, with the American Type Culture Collection (ATCC), 12301 Parklawn Drive, Rockville, Md. 20852, U.S.A. under the provisions of the Budapest Treaty for the International Recognition of the Deposit of Microorganisms for the Purposes of Patent Procedure and was accorded ATCC Accession No. 203197. […]
(In general: In a radioligand displacement assay an active substance lowers the binding of a labelled ligand.)

For experiment [2], the target named is T2, rat 5-HT2C receptor (Rattus norvegicus, UniProt P08909).
T2 construct: expressed in transfected cells
T2 sequence (P08909 33-460): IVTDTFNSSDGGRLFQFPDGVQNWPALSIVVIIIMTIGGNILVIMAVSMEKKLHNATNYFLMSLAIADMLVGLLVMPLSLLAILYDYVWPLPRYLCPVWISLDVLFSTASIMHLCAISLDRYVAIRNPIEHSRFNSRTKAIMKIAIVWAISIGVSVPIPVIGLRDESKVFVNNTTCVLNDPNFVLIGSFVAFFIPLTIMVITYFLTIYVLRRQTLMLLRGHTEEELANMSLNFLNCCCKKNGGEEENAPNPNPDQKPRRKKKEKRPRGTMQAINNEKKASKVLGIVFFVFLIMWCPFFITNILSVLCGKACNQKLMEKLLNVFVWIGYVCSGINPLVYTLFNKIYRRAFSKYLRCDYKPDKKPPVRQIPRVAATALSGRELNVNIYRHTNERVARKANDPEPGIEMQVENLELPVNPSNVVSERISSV
The experiment can be described thus: Radioligand binding assay, cloned receptor. Particulars: Table 2; read-out: r5HT2C Ki. On the procedure: as §1
(§2) The methods to obtain the cDNA of the human NPY1, NPY5, GALR1, GALR2, and GALR3 and rat 5-HT2C receptors, express said receptors in heterologous systems, and carry out assays to determine binding affinity are described in the following publications and above: human NPY1 (Larhammar et al., 1992), human NPY5 (U.S. Pat. No. 5,602,024, the disclosure of which is hereby incorporated by reference in its entirety into this application), human Gal1 (Habert-Ortoli et al., 1994), human Gal2 (Smith et al., 1997), human Gal3 (Smith et al., 1998), and rat 5-HT2C (Julius et al., 1988).

In experiment [3] the target is T1, human MCH1 receptor. Briefly: Functional assay: intracellular calcium mobilization (antagonist potency Kb). In kind it is cell-based. On the set-up: expressed in transfected cells; host or cells: COS-7 cells, transient, DEAE-dextran, plasmid pEXJ.HR-TL231 (ATCC 203197). On the procedure:
Intracellular calcium mobilization assays for the MCH1 receptor were carried out using plasmid pEXJ.HR-TL231 (ATCC Accession No. 203197). COS-7 cells were transiently transfected with DNA encoding the MCH1 receptor utilizing the DEAE-dextran method as described above. The intracellular free calcium concentration was measured by fluorescent imaging using the calcium sensitive fluorscent dye Fluo-3. COS-7 cells expressing the human MCH1 receptor were seeded onto sterile 96 well plates, washed with Hank's balanced salt solution (HBSS), containing 20 mM HEPES, 2.5 mM probenecid, and 0.1% BSA, and loaded with the same buffer containing 3.8 μM Fluo-3 for 1 hour at 37° C. After washing with HBSS to remove the fluo-3 solution, cells were equilibrated for 10 minutes.
For orientation: Calcium assays in cells follow changes in intracellular calcium, usually with a dye or a luminescent sensor.

The target in experiment [4] is T3, human NPY1 (Homo sapiens, UniProt P25929).
T3 construct: expressed in transfected cells
T3 sequence (P25929 1-384): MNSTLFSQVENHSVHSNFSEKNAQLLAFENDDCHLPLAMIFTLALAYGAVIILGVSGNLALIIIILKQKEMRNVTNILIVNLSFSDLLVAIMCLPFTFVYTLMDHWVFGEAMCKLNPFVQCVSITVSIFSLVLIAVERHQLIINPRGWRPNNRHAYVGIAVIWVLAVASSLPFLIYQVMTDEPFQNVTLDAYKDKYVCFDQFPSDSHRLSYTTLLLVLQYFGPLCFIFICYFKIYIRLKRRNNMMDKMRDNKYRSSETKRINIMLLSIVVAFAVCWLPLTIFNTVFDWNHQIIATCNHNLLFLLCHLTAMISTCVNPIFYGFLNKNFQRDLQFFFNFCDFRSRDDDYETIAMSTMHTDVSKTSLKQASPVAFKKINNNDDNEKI
Briefly: Radioligand binding assay, cloned receptor. The note with it: Table 2; read-out: hNPY1 Ki. On the procedure: as §1, §2

Experiment [5] concerns the target T4, human GALR1 (Homo sapiens, UniProt P47211).
T4 construct: expressed in transfected cells
T4 sequence (P47211 1-349): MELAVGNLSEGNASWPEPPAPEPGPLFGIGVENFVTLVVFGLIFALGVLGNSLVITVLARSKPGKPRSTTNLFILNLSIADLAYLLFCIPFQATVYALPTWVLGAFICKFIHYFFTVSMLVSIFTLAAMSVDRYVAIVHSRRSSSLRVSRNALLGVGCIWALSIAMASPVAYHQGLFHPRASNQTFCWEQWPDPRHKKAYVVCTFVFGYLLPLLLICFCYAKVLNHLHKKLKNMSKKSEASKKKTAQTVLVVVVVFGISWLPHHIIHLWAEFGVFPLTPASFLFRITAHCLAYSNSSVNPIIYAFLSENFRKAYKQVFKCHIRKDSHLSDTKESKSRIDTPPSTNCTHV
The experiment can be described thus: Radioligand binding assay, cloned receptor. Particulars: Table 2; read-out: hGALR1 Ki. On the procedure: as §1, §2

Experiment [6] addresses T5, human GALR2 (Homo sapiens, UniProt O43603).
T5 construct: expressed in transfected cells
T5 sequence (O43603 1-387): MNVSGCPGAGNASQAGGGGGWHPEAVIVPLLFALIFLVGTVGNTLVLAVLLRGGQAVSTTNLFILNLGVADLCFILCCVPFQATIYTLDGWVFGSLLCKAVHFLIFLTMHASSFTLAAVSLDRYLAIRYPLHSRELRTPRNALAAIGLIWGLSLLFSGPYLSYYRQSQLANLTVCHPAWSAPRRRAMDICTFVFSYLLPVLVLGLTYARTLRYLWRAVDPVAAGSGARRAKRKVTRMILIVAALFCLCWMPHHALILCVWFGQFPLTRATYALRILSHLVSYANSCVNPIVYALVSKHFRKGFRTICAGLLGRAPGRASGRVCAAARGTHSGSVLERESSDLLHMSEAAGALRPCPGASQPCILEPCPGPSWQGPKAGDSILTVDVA
The experiment can be described thus: Radioligand binding assay, cloned receptor. Particulars: Table 2; read-out: hGALR2 Ki. On the procedure: as §1, §2

Experiment [7] addresses T6, human GALR3 (Homo sapiens, UniProt O60755).
T6 construct: expressed in transfected cells
T6 sequence (O60755 1-368): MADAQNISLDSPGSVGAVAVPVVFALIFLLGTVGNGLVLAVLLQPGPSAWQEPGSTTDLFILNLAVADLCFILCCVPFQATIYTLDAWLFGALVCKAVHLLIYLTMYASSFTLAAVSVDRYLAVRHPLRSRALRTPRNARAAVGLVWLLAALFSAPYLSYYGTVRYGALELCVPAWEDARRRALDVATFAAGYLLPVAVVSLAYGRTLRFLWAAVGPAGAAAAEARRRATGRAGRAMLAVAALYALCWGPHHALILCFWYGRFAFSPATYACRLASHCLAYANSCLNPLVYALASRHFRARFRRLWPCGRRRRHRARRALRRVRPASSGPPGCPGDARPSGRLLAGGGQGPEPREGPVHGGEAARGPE
The experiment can be described thus: Radioligand binding assay, cloned receptor. The note with it: Table 2; read-out: hGALR3 Ki. On the procedure:
as §1, §2

Experiment [8] has as its target T7, human NPY5 (Homo sapiens, UniProt Q15761).
T7 construct: expressed in transfected cells
T7 sequence (Q15761 1-445): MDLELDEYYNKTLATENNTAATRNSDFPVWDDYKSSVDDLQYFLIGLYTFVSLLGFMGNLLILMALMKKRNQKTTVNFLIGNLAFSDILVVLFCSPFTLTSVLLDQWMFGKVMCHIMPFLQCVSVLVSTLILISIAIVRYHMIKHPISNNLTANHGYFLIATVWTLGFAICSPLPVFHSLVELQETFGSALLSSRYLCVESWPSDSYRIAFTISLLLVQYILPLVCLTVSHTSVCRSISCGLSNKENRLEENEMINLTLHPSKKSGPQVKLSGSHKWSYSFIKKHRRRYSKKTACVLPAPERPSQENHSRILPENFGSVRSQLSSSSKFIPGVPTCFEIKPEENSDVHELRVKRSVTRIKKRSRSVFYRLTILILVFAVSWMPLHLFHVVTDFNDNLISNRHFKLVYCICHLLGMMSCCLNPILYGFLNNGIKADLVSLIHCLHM
Briefly: Radioligand binding assay, cloned receptor. The note with it: Table 2; read-out: hNPY5 Ki. On the procedure:
as §1, §2

Experiment [9] relates to G4F-7 cells. Particulars: cited from earlier work; for Ki: inhibition of radioiodinated [Phe13,Tyr19]-MCH binding.
Setting [10] is: Table 1, cloned human MCH1 receptor, functional assay, read-out: Kb (nM) hMCH1.
[11] abbreviates: Table 2, antagonist potency at the human MCH1 receptor, read-out: hMCH1 Kb.

Where two headings read alike, the source gives them in different places. Ends that are not written are not given here.

T1 sequence (Q99705 whole entry): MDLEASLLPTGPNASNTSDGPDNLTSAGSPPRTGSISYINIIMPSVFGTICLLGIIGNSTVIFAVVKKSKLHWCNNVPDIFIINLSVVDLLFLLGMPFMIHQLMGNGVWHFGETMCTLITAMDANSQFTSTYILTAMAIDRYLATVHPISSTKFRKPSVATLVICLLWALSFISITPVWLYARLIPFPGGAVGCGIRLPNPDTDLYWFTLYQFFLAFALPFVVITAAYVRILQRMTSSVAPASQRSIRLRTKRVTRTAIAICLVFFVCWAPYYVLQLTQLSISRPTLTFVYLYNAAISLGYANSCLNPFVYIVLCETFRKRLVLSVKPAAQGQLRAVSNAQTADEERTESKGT

Turning to `COCC1=C(C(=O)OC)C(c2ccc(F)c(F)c2)N(C(=O)NCCCN2CCC(c3cccc(NC(C)=O)c3)CC2)C(=O)N1` (single isomer, unassigned; (+)) [Example 10, (+)-1,2,3,6-TETRAHYDRO-1-{N-[4-(3,-ACETAMIDO)-PHENYL-PIPERIDIN-1-YL]PROPYL}CARBOXAMIDO-4-METHOXYMETHYL-6-(3,4-DIFLUORO-PHENYL)-2-OXOPYRIMIDINE-5-CARBOXYLIC ACID METHYL ESTER], the Ki in experiment [1] is 0.08 nM; in [2], 29600 nM. The Kb in experiment [3] (setting [10]) worked out at 0.3 nM.

`CCN1c2ccc(/C=C3\SC(=S)NC3=O)cc2C(C)=CC1(C)C` [Example 25]: in experiment [4], the Ki is > 50000 nM. In addition, the Kb in experiment [3] (setting [10]) and in [3] (setting [11]) was 126 nM each time.

In the case of `O=C(CCCN1CCC(NC(=O)c2ccccc2)CC1)c1ccc(Cl)cc1` [Example 28, 1-[3-(4-CHLOROBENZOYL)]PROPYL-4-BENZAMIDOPIPERIDINE], the Ki in experiment [4] is > 50000 nM. Besides, the Kb in [3] (setting [10]) and in experiment [3] (setting [11]) was 60 nM throughout.

Turning to `CCCCc1ccc(-c2cc(=O)[nH]c3[nH]c(=O)[nH]c(=O)c23)s1` [Example 37, 5-(5-BUTYL-2-THIENYL)PYRIDO[2,3-d]PYRIMIDINE-2,4,7(1H,3H,8H)-TRIONE], the Ki in [5], in [6], in experiment [7], in experiment [4], in [8] and in [2] was > 50000 nM each time. In addition, the Kb in [3] (setting [10]) and in experiment [3] (setting [11]) was 162 nM in each case.

For “Melanin-concentrating hormone [native MCH]”, the Ki in [9] is 12 nM.

For “[Phe^13,Tyr^19]-MCH: radioiodinated MCH analogue; the ligand retained biological activity and exhibited specific binding to a variety of cell lines”, in experiment [9] (radioiodinated ligand, G4F-7 cells), the Kd was 0.118 nM.

On to “rat ANF: rat ANF, weakly inhibited binding of the radioiodinated MCH analogue (SLRRSSCFGGRIDRIGAQSGLGCNSFRY; ends and bridges not checked; cysteine pairing not given here; UniProt P01161 123-150, looked up)”, for which the Ki in [9] was 116 nM.

Turning to α-MSH, the inhibition of binding result in [9] (radioiodinated [Phe13,Tyr19]-MCH binding) is given as “not inhibited”.

A word on the Ki: it is the dissociation constant of the complex between target and ligand, obtained from inhibition or displacement. As usually defined, the Kb is the equilibrium dissociation constant of an antagonist, usually derived from a functional assay. By Kd is commonly meant a measure of binding affinity in units of concentration.
